Assay results as given in the supplement of paper PMC4862054.

How the values were obtained:
Test in all cases: normalised viability (% of control), CellTiter-Blue; higher = more viable cells (about 100 = DMSO control)
Conditions in all cases: incubation time: 72 h
HCC1599 = system: HCC1599
How it was run: (§1)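 Vehicle (100) and a positive kill control (0) anchored the normalisation of each plate, and Z'-factor was used for quality control. Breast cancer cell lines in 20 µl suspension were incubated 72 h over compound in 5 µl medium in 384-well plates, followed by CellTiter-Blue at 560/590 nm. The value is normalised viability at a single listed concentration of the series.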

Hs578T [1] = system: Hs578T
How it was run: as §1

SK-BR-3 [2] = system: SK-BR-3
How it was run: as §1

MFM-223 [3] = system: MFM-223
How it was run: as §1

DU-4475 = system: DU-4475
How it was run: as §1

CAL-51 = system: CAL-51
How it was run: as §1

MDA-MB-453 [4] = system: MDA-MB-453
How it was run: as §1

MDA-MB-468 [5] = system: MDA-MB-468
How it was run: as §1

HCC1937 = system: HCC1937
How it was run: as §1

MDA-MB-231 [6] = system: MDA-MB-231
How it was run: as §1

MDA-MB-436 [7] = system: MDA-MB-436
How it was run: as §1

CAL-148 = system: CAL-148
How it was run: as §1

HCC1143 = system: HCC1143
How it was run: as §1

CAL-120 = system: CAL-120
How it was run: as §1

HDQ-P1 [8] = system: HDQ-P1
How it was run: as §1

BT-474 [9] = system: BT-474
How it was run: as §1

BT-549 = system: BT-549
How it was run: as §1

CAL-85-1 = system: CAL-85-1
How it was run: as §1

Hs578T [10] = system: Hs578T; remark: listed apart in the source
Procedure: (§2)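 DSRT, CellTiter-Blue viability, 72 h incubation. Signal is normalised to DMSO and benzethonium chloride controls. Value is the normalised response at dose 3.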

SK-BR-3 [11] = system: SK-BR-3; remark: listed apart in the source
Procedure: as §2

MFM-223 [12] = system: MFM-223; remark: listed apart in the source
Procedure: as §2

MDA-MB-453 [13] = system: MDA-MB-453; remark: listed apart in the source
Procedure: as §2

MDA-MB-468 [14] = system: MDA-MB-468; remark: listed apart in the source
Procedure: as §2

MDA-MB-231 [15] = system: MDA-MB-231; remark: listed apart in the source
Procedure: as §2

MDA-MB-436 [16] = system: MDA-MB-436; remark: listed apart in the source
Procedure: as §2

HDQ-P1 [17] = system: HDQ-P1; remark: listed apart in the source
Procedure: as §2

BT-474 [18] = system: BT-474; remark: listed apart in the source
Procedure: as §2

COC1=C2C[C@@H](C)C[C@H](OC)[C@H](O)[C@@H](C)/C=C(\C)[C@H](OC(N)=O)[C@@H](OC)/C=C\C=C(/C)C(=O)NC(=CC1=O)C2=O [Geldanamycin]
Conditions	normalised viability [%]
BT-474 [9], 10 nM	127
BT-474 [9], 1000 nM	18.5
BT-474 [9], 10000 nM	16.4
BT-474 [18], 100 nM	33.6
BT-549, 10 nM	89.7
BT-549, 1000 nM	18
BT-549, 10000 nM	15.9
CAL-51, 3 nM	109
CAL-51, 30 nM	100
CAL-51, 100 nM	95.4
CAL-85-1, 3 nM	104
CAL-85-1, 30 nM	87.4
CAL-85-1, 100 nM	99.2
CAL-120, 10 nM	91
CAL-120, 1000 nM	13.6
CAL-120, 10000 nM	6.18
CAL-148, 3 nM	102
CAL-148, 30 nM	110
CAL-148, 100 nM	108
DU-4475, 3 nM	106
DU-4475, 30 nM	113
DU-4475, 100 nM	73.2
HCC1143, 10 nM	90.2
HCC1143, 1000 nM	38.3
HCC1143, 10000 nM	24.9
HCC1599, 10 nM	113
HCC1599, 1000 nM	31.3
HCC1599, 10000 nM	20.1
HCC1937, 10 nM	115
HCC1937, 1000 nM	30.1
HCC1937, 10000 nM	21.3
HDQ-P1 [8], 3 nM	124
HDQ-P1 [8], 30 nM	104
HDQ-P1 [8], 100 nM	44.8
HDQ-P1 [17], 10 nM	109
Hs578T [1], 10 nM	122
Hs578T [1], 1000 nM	31.1
Hs578T [1], 10000 nM	17.2
Hs578T [10], 100 nM	56.8
MDA-MB-231 [6], 10 nM	102
MDA-MB-231 [6], 1000 nM	15.3
MDA-MB-231 [6], 10000 nM	4.86
MDA-MB-231 [15], 100 nM	31.4
MDA-MB-436 [7], 10 nM	107
MDA-MB-436 [7], 1000 nM	15.7
MDA-MB-436 [7], 10000 nM	16.9
MDA-MB-436 [16], 100 nM	20
MDA-MB-453 [4], 3 nM	121
MDA-MB-453 [4], 30 nM	97.3
MDA-MB-453 [4], 100 nM	51.3
MDA-MB-453 [13], 10 nM	120
MDA-MB-468 [5], 10 nM	99
MDA-MB-468 [5], 1000 nM	11.2
MDA-MB-468 [5], 10000 nM	8.18
MDA-MB-468 [14], 100 nM	33.8
MFM-223 [3], 10 nM	103
MFM-223 [3], 1000 nM	17.7
MFM-223 [3], 10000 nM	8.14
MFM-223 [12], 100 nM	50.6
SK-BR-3 [2], 10 nM	101
SK-BR-3 [2], 1000 nM	14.9
SK-BR-3 [2], 10000 nM	9.38
SK-BR-3 [11], 100 nM	22.8

C[C@@H]1C=C2C(=O)O[C@@H]3CC[C@H](C1)[C@]23O [Galiellalactone]
Conditions	normalised viability [%]
BT-474 [9], 50 nM	131
BT-474 [9], 5000 nM	98.9
BT-474 [9], 50000 nM	27.4
BT-474 [18], 500 nM	136
BT-549, 50 nM	83.9
BT-549, 5000 nM	59.9
BT-549, 50000 nM	7.58
CAL-51, 15 nM	108
CAL-51, 150 nM	104
CAL-51, 500 nM	102
CAL-85-1, 15 nM	95.8
CAL-85-1, 150 nM	90.5
CAL-85-1, 500 nM	108
CAL-120, 50 nM	88.6
CAL-120, 5000 nM	89.9
CAL-120, 50000 nM	83.8
CAL-148, 15 nM	99.7
CAL-148, 150 nM	108
CAL-148, 500 nM	103
DU-4475, 15 nM	103
DU-4475, 150 nM	92.2
DU-4475, 500 nM	95.5
HCC1143, 50 nM	90.8
HCC1143, 5000 nM	104
HCC1143, 50000 nM	86.9
HCC1599, 50 nM	95.2
HCC1599, 5000 nM	89.8
HCC1599, 50000 nM	67.5
HCC1937, 50 nM	132
HCC1937, 5000 nM	79.4
HCC1937, 50000 nM	22.8
HDQ-P1 [8], 15 nM	108
HDQ-P1 [8], 150 nM	96
HDQ-P1 [8], 500 nM	116
HDQ-P1 [17], 50 nM	113
Hs578T [1], 50 nM	121
Hs578T [1], 5000 nM	115
Hs578T [1], 50000 nM	50.9
Hs578T [10], 500 nM	101
MDA-MB-231 [6], 50 nM	100
MDA-MB-231 [6], 5000 nM	61.4
MDA-MB-231 [6], 50000 nM	7.78
MDA-MB-231 [15], 500 nM	91.8
MDA-MB-436 [7], 50 nM	98.2
MDA-MB-436 [7], 5000 nM	76.6
MDA-MB-436 [7], 50000 nM	21.9
MDA-MB-436 [16], 500 nM	90.1
MDA-MB-453 [4], 15 nM	114
MDA-MB-453 [4], 150 nM	91.2
MDA-MB-453 [4], 500 nM	98.4
MDA-MB-453 [13], 50 nM	110
MDA-MB-468 [5], 50 nM	101
MDA-MB-468 [5], 5000 nM	80.4
MDA-MB-468 [5], 50000 nM	33.6
MDA-MB-468 [14], 500 nM	105
MFM-223 [3], 50 nM	90.6
MFM-223 [3], 5000 nM	95.5
MFM-223 [3], 50000 nM	40.4
MFM-223 [12], 500 nM	92.8
SK-BR-3 [2], 50 nM	105
SK-BR-3 [2], 5000 nM	85.2
SK-BR-3 [2], 50000 nM	6.84
SK-BR-3 [11], 500 nM	96.4

Cn1cnc2c(F)c(Nc3ccc(Br)cc3F)c(C(=O)NOCCO)cc21 [MEK-162]
Conditions	normalised viability [%]
BT-474 [9], 1 nM	119
BT-474 [9], 100 nM	115
BT-474 [9], 1000 nM	119
BT-474 [18], 10 nM	114
BT-549, 1 nM	100
BT-549, 100 nM	110
BT-549, 1000 nM	108
CAL-51, 0.3 nM	112
CAL-51, 3 nM	104
CAL-51, 10 nM	100
CAL-85-1, 0.3 nM	94.6
CAL-85-1, 3 nM	95.1
CAL-85-1, 10 nM	99.1
CAL-120, 1 nM	98.1
CAL-120, 100 nM	93.8
CAL-120, 1000 nM	93.4
CAL-148, 0.3 nM	94
CAL-148, 3 nM	91
CAL-148, 10 nM	97.2
DU-4475, 0.3 nM	100
DU-4475, 3 nM	94
DU-4475, 10 nM	78.1
HCC1143, 1 nM	100
HCC1143, 100 nM	70.7
HCC1143, 1000 nM	61.8
HCC1599, 1 nM	90.5
HCC1599, 100 nM	88.4
HCC1599, 1000 nM	76.5
HCC1937, 1 nM	72.6
HCC1937, 100 nM	94.8
HCC1937, 1000 nM	88.5
HDQ-P1 [8], 0.3 nM	110
HDQ-P1 [8], 3 nM	105
HDQ-P1 [8], 10 nM	113
HDQ-P1 [17], 1 nM	114
Hs578T [1], 1 nM	126
Hs578T [1], 100 nM	102
Hs578T [1], 1000 nM	97
Hs578T [10], 10 nM	81.5
MDA-MB-231 [6], 1 nM	104
MDA-MB-231 [6], 100 nM	80.3
MDA-MB-231 [6], 1000 nM	47
MDA-MB-231 [15], 10 nM	92.5
MDA-MB-436 [7], 1 nM	114
MDA-MB-436 [7], 100 nM	76.4
MDA-MB-436 [7], 1000 nM	99.6
MDA-MB-436 [16], 10 nM	126
MDA-MB-453 [4], 0.3 nM	115
MDA-MB-453 [4], 3 nM	94
MDA-MB-453 [4], 10 nM	110
MDA-MB-453 [13], 1 nM	113
MDA-MB-468 [5], 1 nM	107
MDA-MB-468 [5], 100 nM	99.5
MDA-MB-468 [5], 1000 nM	75.2
MDA-MB-468 [14], 10 nM	98
MFM-223 [3], 1 nM	90.8
MFM-223 [3], 100 nM	89.4
MFM-223 [3], 1000 nM	94.5
MFM-223 [12], 10 nM	87.9
SK-BR-3 [2], 1 nM	111
SK-BR-3 [2], 100 nM	111
SK-BR-3 [2], 1000 nM	102
SK-BR-3 [11], 10 nM	83.4
